In article PMC8637440, “Structural Modifications Yield Novel Insights Into the Intriguing Pharmacodynamic Potential of Anti-inflammatory Nitro-Fatty Acids” (Frontiers in Pharmacology, 2021):

Assays:
Nrf-2 = Nrf-2 induction in HCT-116 cells (Western blot and ELISA); format: cell-based, human; details: 10 µM, 4 h, HCT-116, Western blot and ELISA
Experimental: The Nrf-2 and NF-κB transcription factors in the nuclear extracts were detected using an Nrf-2 Transcription Assay Kit (Cayman Chemical, # 600590) and NF-κB (p65 and p50) Transcription Factor Assay Kit (Cayman Chemical, # 10007889 and # 10006912). Prior to assay performance, the nuclear extracts were generated using a Nuclear Extraction Kit (Cayman Chemical, # 10009277). The assay was performed according to the manufacturer’s instructions. For all kits, the nuclear extracts were incubated overnight at 4°C. Development was carried out for 15–20 min or until the wells turned medium to dark blue. Five minutes after the stop solution had been added, the absorbance was read at 450 nm using a plate reader.
HCT-116 and A549 cells were washed with 1× PBS, and cell extracts were generated using a Nuclear Extraction Kit (Cayman Chemical, #10009277) according to the manufacturer’s instructions, whereas whole-cell lysates were obtained using SDS lysis buffer (55.5 mM Tris-HCl pH 6.8, 2.2% SDS, 9% glycerol supplemented with protease (cOmplete® Protease Inhibitor Cocktail, Roche, Mannheim, Germany) and phosphatase (PhosStop® Easy Pack, Roche, Mannheim, Germany) inhibitors. Protein concentrations from the nuclear and cytosolic fractions were determined with a bicinchoninic acid (BCA) protein assay kit (Pierce™, Rockford, Illinois, United States). Cytoplasmic and nuclear extracts (100 µg each) and 30 µg whole-cell lysates were diluted in 5× Laemmli loading dye and denatured for 10 min at 95°C, loaded on a 10% SDS polyacrylamide gel, and separated by gel electrophoresis for 15 min at 80 V followed by 60 min at 120 V. The separated proteins were blotted onto a nitrocellulose membrane (Hybond-C Extra, Amersham Biosciences Ltd., UK) using the Mini Trans-Blot® module (Bio-Rad, Hercules, California, United States) for 90 min at 90 V. The membrane was blocked with Odyssey blocking buffer (Li-Cor Biosciences, Bad Homburg, Germany) or 5% milk powder in TBS-T (Tris Buffered Saline with 0.1% Tween) for 1 h at room temperature (RT). The membranes were incubated with the primary antibodies overnight at 4°C, and then with the secondary antibodies for 1 h at RT. The primary antibodies were diluted 1:1,000 and the secondary antibodies were diluted 1:10,000 to 1:20,000. […]
FIGURE 2 Effects of NFA on Nrf-2 expression in colorectal cancer cells. HCT-116 cells were treated with 10 µM NFA and tBHQ and/or MMF for 4 h, and Nrf-2 levels were analyzed by western blotting and ELISA. […] (B) Nrf-2 expression levels were evaluated with an ELISA after incubation with NFA with different carbon chain lengths and Michael acceptor positions. […]

COX-2 expression = COX-2 expression in A549 cells (Western blot); format: cell-based, human; details: 24 h; for COX-2 expression in IL-1β-stimulated A549 cells: 10 µM
Experimental: Cytoplasmic and nuclear extracts (100 µg each) and 30 µg whole-cell lysates were diluted in 5× Laemmli loading dye and denatured for 10 min at 95°C, loaded on a 10% SDS polyacrylamide gel, and separated by gel electrophoresis for 15 min at 80 V followed by 60 min at 120 V. The separated proteins were blotted onto a nitrocellulose membrane (Hybond-C Extra, Amersham Biosciences Ltd., UK) using the Mini Trans-Blot® module (Bio-Rad, Hercules, California, United States) for 90 min at 90 V. The membrane was blocked with Odyssey blocking buffer (Li-Cor Biosciences, Bad Homburg, Germany) or 5% milk powder in TBS-T (Tris Buffered Saline with 0.1% Tween) for 1 h at room temperature (RT). The membranes were incubated with the primary antibodies overnight at 4°C, and then with the secondary antibodies for 1 h at RT. The primary antibodies were diluted 1:1,000 and the secondary antibodies were diluted 1:10,000 to 1:20,000. […] Upon detection, the membrane was washed three times with 1× PBS-T (Phosphate-Buffered Saline with 0.1% Tween) or TBS-T and finally once with 1× PBS or TBS before the protein–antibody interaction was visualized on an Odyssey Infrared Imaging System (Li-Cor Biosciences) at 700 nm or 800 nm depending on the fluorophore of the secondary antibody.
Suppl. Figure 6: Effects of NFA on cellular COX-2 expression. Representative Western Blot of A549 cells treated with (A) NFA with different carbon chain length and (B) different Michael acceptor position for 24 h without IL-1 β stimulation (1 ng/ml) and the densitometrical evaluation of n=4-5 experiments (C, D). Representative Western Blot of A549 cells stimulated with IL-1 β and subsequent treatment with (E) NFA with different carbon chain length and (F) different Michael acceptor position for 24 h and the densitometrical evaluation of n=4-5 experiments (G, H). Intracellular COX-2 levels were normalized to β-actin and presented as mean + SD. Statistical significance was calculated by one-way ANOVA with Bonferroni post-test. P-values of **** P ≦0.0001, **P ≦0.0021, and *P ≦0.03 are considered significant. COX, cyclooxygenase; DMSO , dimethyl sulfoxide; NFA, nitro fatty acids
(1 picture or pasted object on this page, not shown here)

SMILES	induction of Nrf-2 (protein levels / signaling) (Nrf-2)	COX-2 expression in IL-1β-stimulated A549 cells (COX-2 expression)	COX-2 gene expression in non-stimulated A549 cells (COX-2 expression; without IL-1β)
CCCCCCCC/C=C\CCCCCCCC(=O)O [OA, oleic acid, reference compound]	did not affect	–	–
CCCCCCCCCCC=C(CCCCCC(=O)O)[N+](=O)[O-] [18.7.7, 7-nitro-octadec-7-enoic acid]	–	highest effects	clearly increased COX-2 gene expression
CCCCCCCCC=C(CCCCCCCC(=O)O)[N+](=O)[O-] [18.9.9, 9-nitro-octadec-9-enoic acid]	strongest effects	–	–
CCCCCCCCCCCCC=C(CCCC(=O)O)[N+](=O)[O-] [18.5.5, 5-nitro-octadec-5-enoic acid]	–	highest effects	–
CCCCCCCCCC=C(CCCCCCC(=O)O)[N+](=O)[O-] [18.8.8, 8-nitro-octadec-8-enoic acid]	–	highest effects	–
